Broadly, the pIC50 is the negative decadic logarithm of the IC50, by convention in mol/L. Low readings indicate a large IC50, high ones a small IC50.

Molecules are shown by their SMILES. pIC50: −log10 of the molar value. Like-named read-outs stand apart in the source and are kept apart here.

Consider 15 molecules from US20250115597A1, “TYK2 INHIBITORS AND COMPOSITIONS AND METHODS THEREOF” (LYNK PHARMACEUTICALS CO. LTD., priority 2021, published 2025).

The target in one series is T1, TYK2-JH2 domain (Homo sapiens, UniProt P29597).
T1 construct: IC50 on JH2 domain activity (nM)
Description: Binding activity test for JH2 domain of TYK2 (Tb-antibody/tracer FRET). As for the experimental part:
Binding Activity Test for […] Domain of JAK1 and TYK2 The compounds are prepared in DMSO for 200× top dose, then serial dilute it with 27-fold for 3 more points. Add 8 μL/well in echo source plate, echo will add 75 nL/well with 3-fold serial dilution for 11 points in assay plate. 75 nL DMSO for high control and low control. […] For low control, add 5 μL/well assay buffer. And then spin down at 1000 rpm and centrifuge for 30 seconds. After enzyme system prepared, add 5 μL of Tb-antibody solution into each wells of assay plate. Spin down at 1000 rpm and centrifuge for 30 sec. After Tb-antibody added, also add 5 μL of tracer into the assay plate. Spin down at 1000 rpm and centrifuge for 30 sec. Incubate for 60 mins at 25° C. firstly and then continue to incubate the plate at 4° C. overnight. Read by envision in FRET mode. The Luminescence value was recorded by a multi-label reader Envision (PerkinElmer).

Series [1] deals with T2, Ba/F3-FL-TYK2-P760L cells (Homo sapiens, UniProt P29597, P760L, cells depend on it).
T2 construct: BaF3-FL-T2P760L (nM)
Briefly: Anti-proliferative assay, Ba/F3-FL-TYK2-P760L cells (Cell-Titer Glo). Format: cell-based. Particulars: 72 h, read-out: BaF3-FL-T2P760L IC50. The essentials: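 Ba/F3 cells made IL-3-independent by TEL-fused or full-length mutant JAK-family kinases, seeded at 2000/well and dosed after 24 h with 9 three-fold dilutions topping at 20 μM. Viability after 72 h at 37 °C, 5% CO2 by Cell-Titer Glo ATP luminescence.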

The nature of series [2]: Microsomal metabolic stability assay. Format: in vitro ADME. Particulars: pH 7.4, 0.5 mg/mL protein, 1 μM compound. The method in brief:
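Test article at 1 μM with 0.5 mg/mL microsomal protein and 2 mM NADPH, in 100 mM potassium phosphate pH 7.4 with 1.0 mM EDTA at 37 °C. Sampled at 0–45 min and quantified by LC/MS/MS. T1/2 from the slope of ln % remaining vs time.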

The mark [3] stands for this setting: dog liver microsomes, read-out: Dog LM Clint.
Setting [4] is: dog liver microsomes, read-out: Dog LM T½.
[5] abbreviates: human liver microsomes, read-out: Human LM Clint.
[6] abbreviates: human liver microsomes, read-out: Human LM T½.
The mark [7] stands for this setting: rat liver microsomes, read-out: Rat LM Clint.
Where [8] appears, read: rat liver microsomes, read-out: Rat LM T½.

T1 sequence (P29597 589-875 limits assumed): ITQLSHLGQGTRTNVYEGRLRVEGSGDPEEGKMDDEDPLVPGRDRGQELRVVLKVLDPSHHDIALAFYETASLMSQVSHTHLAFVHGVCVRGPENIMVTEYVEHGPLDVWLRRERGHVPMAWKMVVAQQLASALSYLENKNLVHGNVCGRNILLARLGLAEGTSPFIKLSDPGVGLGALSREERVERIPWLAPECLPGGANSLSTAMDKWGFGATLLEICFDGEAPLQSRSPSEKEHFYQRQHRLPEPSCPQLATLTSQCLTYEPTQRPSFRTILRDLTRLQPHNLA
T2 sequence (P29597 whole entry P760L): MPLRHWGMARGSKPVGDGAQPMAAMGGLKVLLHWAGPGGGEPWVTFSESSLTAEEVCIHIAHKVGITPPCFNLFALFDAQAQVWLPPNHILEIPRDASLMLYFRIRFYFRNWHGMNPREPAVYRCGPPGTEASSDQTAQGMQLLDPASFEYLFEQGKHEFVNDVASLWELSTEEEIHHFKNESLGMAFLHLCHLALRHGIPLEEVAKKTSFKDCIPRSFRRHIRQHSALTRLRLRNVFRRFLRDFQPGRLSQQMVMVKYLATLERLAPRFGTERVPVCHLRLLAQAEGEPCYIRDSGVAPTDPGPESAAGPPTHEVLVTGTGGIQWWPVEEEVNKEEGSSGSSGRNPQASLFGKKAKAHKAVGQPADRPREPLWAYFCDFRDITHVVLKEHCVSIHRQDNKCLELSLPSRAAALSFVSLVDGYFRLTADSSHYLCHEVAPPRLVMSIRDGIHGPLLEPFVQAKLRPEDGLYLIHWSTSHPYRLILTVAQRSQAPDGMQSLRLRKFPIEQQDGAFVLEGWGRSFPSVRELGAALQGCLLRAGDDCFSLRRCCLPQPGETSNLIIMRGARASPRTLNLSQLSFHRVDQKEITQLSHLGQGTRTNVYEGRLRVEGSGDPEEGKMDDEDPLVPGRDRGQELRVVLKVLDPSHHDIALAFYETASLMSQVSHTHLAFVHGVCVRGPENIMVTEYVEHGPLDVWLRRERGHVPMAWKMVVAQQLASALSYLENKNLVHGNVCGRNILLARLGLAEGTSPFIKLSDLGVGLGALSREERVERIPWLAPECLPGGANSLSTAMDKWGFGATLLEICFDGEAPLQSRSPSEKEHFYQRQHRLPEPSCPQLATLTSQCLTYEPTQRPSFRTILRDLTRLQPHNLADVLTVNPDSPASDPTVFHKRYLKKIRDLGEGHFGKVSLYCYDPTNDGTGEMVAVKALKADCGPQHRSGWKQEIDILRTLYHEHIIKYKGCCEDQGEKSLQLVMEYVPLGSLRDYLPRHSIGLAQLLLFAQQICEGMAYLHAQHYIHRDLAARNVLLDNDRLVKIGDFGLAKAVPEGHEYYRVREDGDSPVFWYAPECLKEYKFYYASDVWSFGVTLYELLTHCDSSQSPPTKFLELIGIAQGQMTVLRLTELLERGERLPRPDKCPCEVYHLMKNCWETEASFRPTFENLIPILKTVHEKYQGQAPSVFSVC

The molecule `[2H]C([2H])([2H])NC(=O)c1cnc(NC(=O)C2CC2)cc1Nc1ccn2ncc(CCC)c2c1OC` [Example 215, 6-(Cyclopropanecarboxamido)-4-((4-methoxy-3-propylpyrazolo[1,5-a]pyridin-5-yl)amino)-N-(methyl-d3)nicotinamide] gave a pIC50 on TYK2-JH2 domain of 9.27. In series [1], the GI50 was determined as 159 nM.
In the same order, the values of `[2H]C([2H])([2H])NC(=O)c1cnc(NC(=O)C2CC2)cc1Nc1ccc2cnc(CC)n2c1OC` [Example 227, 6-(Cyclopropanecarboxamido)-4-((3-ethyl-5-methoxyimidazo[1,5-a]pyridin-6-yl)amino)-N-(methyl-d3)nicotinamide] are 8.12 and > 5000 nM.
For `[2H]C([2H])([2H])NC(=O)c1cnc(NC(=O)C2CC2)cc1Nc1ccc2cnn(CCN(C)C)c2c1OC` [Example 274, 6-(Cyclopropanecarboxamido)-4-((1-(2-(dimethylamino)ethyl)-7-methoxy-1H-indazol-6-yl)amino)-N-(methyl-d3)nicotinamide], in that order: 7.46 and > 5000 nM.
`[2H]C([2H])([2H])NC(=O)c1cnc(NC(=O)C2CC2)cc1Nc1cn(CC(F)(F)F)c2ncn(CC)c(=O)c12` [Example 214, 6-(Cyclopropanecarboxamido)-4-((3-ethyl-4-oxo-7-(2,2,2-trifluoroethyl)-4,7-dihydro-3H-pyrrolo[2,3-d]pyrimidin-5-yl)amino)-N-(methyl-d3)nicotinamide] showed a pIC50 at TYK2-JH2 domain of 9.25. Also, in series [1], the GI50 amounted to 217 nM.
In the same order, the values of `CCc1nn(C)c2ccc(Nc3cc(NC(=O)C4CC4)ncc3C(=O)OC)c(OC)c12` [Example 149, Methyl 6-(cyclopropanecarboxamido)-4-((3-ethyl-4-methoxy-1-methyl-1H-indazol-5-yl)amino)nicotinate] are 7.20 and 732 nM.
`[2H]C([2H])([2H])NC(=O)c1cnc(NC(=O)C2CC2)cc1Nc1cn(C)c2ncn(CC(F)F)c(=O)c12` [Example 194, 6-(Cyclopropanecarboxamido)-4-((3-(2,2-difluoroethyl)-7-methyl-4-oxo-4,7-dihydro-3H-pyrrolo[2,3-d]pyrimidin-5-yl)amino)-N-(methyl-d3)nicotinamide]: the pIC50 on TYK2-JH2 domain is 9.12. The GI50 in series [1] was found to be 562 nM.
For `CCN1C(=O)Cc2ccc(Nc3cc(NC(=O)C4CC4)ncc3C(=O)NC)c(OC)c21` [Example 205, 6-(Cyclopropanecarboxamido)-4-((1-ethyl-7-methoxy-2-oxoindolin-6-yl)amino)-N-methylnicotinamide], in that order: 8.88 and 252 nM.
Consider `[2H]C([2H])([2H])NC(=O)c1cnc(NC(=O)C2CC2)cc1Nc1cn(CC)c2ncn(CC(F)(F)F)c(=O)c12` [Example 212, 6-(Cyclopropanecarboxamido)-4-((7-ethyl-4-oxo-3-(2,2,2-trifluoroethyl)-4,7-dihydro-3H-pyrrolo[2,3-d]pyrimidin-5-yl)amino)-N-(methyl-d3)nicotinamide], for which, at TYK2-JH2 domain, the pIC50 was 9.22. Also, the GI50 in series [1] turned out to be 244 nM.
In the same order, the values of `[2H]C([2H])([2H])NC(=O)c1cnc(NC(=O)C2CC2)cc1Nc1ncn2ncc(Cl)c2c1OC` [Example 281, 4-((3-Chloro-4-methoxypyrazolo[1,5-c]pyrimidin-5-yl)amino)-6-(cyclopropanecarboxamido)-N-(methyl-d3)nicotinamide] are 9.60 and 48.2 nM.
With `CCn1ccc2c(c(Nc3cc(Nc4ncc(F)cc4F)ncc3C(=O)NC)cn2C)c1=O` [Example 98, 6-((3,5-Difluoropyridin-2-yl)amino)-4-((5-ethyl-1-methyl-4-oxo-4,5-dihydro-1H-pyrrolo[3,2-c]pyridin-3-yl)amino)-N-methylnicotinamide], the GI50 in series [1] amounted to 488 nM. The values for the microsomal CLint at 1 μM in series [2] (setting [3]), in series [2] (setting [5]) and in series [2] (setting [7]) were 37.3 µL/min/mg, 32.6 µL/min/mg and 114 µL/min/mg, respectively. The values for the half-life at 1 μM in series [2] (setting [4]), in series [2] (setting [6]) and in series [2] (setting [8]) were 0.62 h, 0.709 h and 0.202 h, respectively.
Regarding `[2H]C([2H])([2H])NC(=O)c1cnc(NC(=O)C2CC2)cc1Nc1ccc2nnc(CC)n2c1OC` [Example 58, 6-(Cyclopropanecarboxamido)-4-((3-ethyl-5-methoxy-[1,2,4]triazolo[4,3-a]pyridin-6-yl)amino)-N-(methyl-d3)nicotinamide], the GI50 in series [1] is > 5000 nM. For the same molecule, the microsomal CLint at 1 μM in series [2] (setting [3]), in series [2] (setting [5]) and in series [2] (setting [7]) was < 11.5 µL/min/mg throughout. Further, the half-life at 1 μM in series [2] (setting [4]), in series [2] (setting [6]) and in series [2] (setting [8]) was > 2 h throughout.
For the molecule `[2H]C([2H])([2H])NC(=O)c1cnc2cc1Nc1cc(cc(-c3ncc(F)cn3)c1OC)COCc1nc(ccc1F)N2` [Example 86, 18-Fluoro-11-(5-fluoropyrimidin-2-yl)-10-methoxy-N-(methyl-d3)-15-oxa-2,4,8,21-tetraazatetracyclo[15.3.1.1^{3,7}.1^{9,13}]tricosa-1(20),3,5,7(23),9(22),10,12,17(21),18-nonaene-6-carboxamide], in series [1], the GI50 stood at 139 nM. The results for the microsomal CLint at 1 μM in series [2] (setting [3]), in series [2] (setting [5]) and in series [2] (setting [7]) were 20 µL/min/mg, < 11.5 µL/min/mg and < 11.5 µL/min/mg, respectively. Further, the figures for the half-life at 1 μM in series [2] (setting [4]), in series [2] (setting [6]) and in series [2] (setting [8]) were 1.16 h, > 2 h and > 2 h, respectively.
On to `[2H]C([2H])([2H])NC(=O)c1cnc(NC(=O)C2CC2)cc1Nc1csc2c(Cl)cn(C([2H])([2H])[2H])c(=O)c12` [Example 174, 4-((7-Chloro-5-(methyl-d3)-4-oxo-4,5-dihydrothieno[3,2-c]pyridin-3-yl)amino)-6-(cyclopropanecarboxamido)-N-(methyl-d3)nicotinamide], for which the GI50 in series [1] is 147 nM. Moreover, the microsomal CLint at 1 μM was < 11.5 µL/min/mg in series [2] (setting [3]), 18.2 µL/min/mg in series [2] (setting [5]) and 25.9 µL/min/mg in series [2] (setting [7]). Also, the half-life at 1 μM was > 2 h in series [2] (setting [4]), 1.27 h in series [2] (setting [6]) and 0.892 h in series [2] (setting [8]).
`[2H]C([2H])([2H])NC(=O)c1cnc(NC(=O)C2CC2)cc1Nc1csc2cnn(C(C)C)c(=O)c12` [Example 184, 6-(Cyclopropanecarboxamido)-4-((5-isopropyl-4-oxo-4,5-dihydrothieno[2,3-d]pyridazin-3-yl)amino)-N-(methyl-d3)nicotinamide]: in series [1], the GI50 was determined as 189 nM. Also, the microsomal CLint at 1 μM in series [2] (setting [3]) is < 11.5 µL/min/mg; in series [2] (setting [5]) it was < 11.5 µL/min/mg; in series [2] (setting [7]), 23.1 µL/min/mg. The half-life at 1 μM in series [2] (setting [4]) was > 2 h; in series [2] (setting [6]), > 2 h; in series [2] (setting [8]) it was 1 h.
On to `CNC(=O)c1cnc(NC(=O)C2CC2)cc1Nc1csc2c(Cl)cn(C)c(=O)c12` [Example 171, 4-((7-Chloro-5-methyl-4-oxo-4,5-dihydrothieno[3,2-c]pyridin-3-yl)amino)-6-(cyclopropanecarboxamido)-N-methylnicotinamide], for which the GI50 in series [1] was determined as 105 nM. Further, the results for the microsomal CLint at 1 μM in series [2] (setting [3]), in series [2] (setting [5]) and in series [2] (setting [7]) were 2.94 µL/min/mg, 12.8 µL/min/mg and 16.9 µL/min/mg, respectively. For the same molecule, the figures for the half-life at 1 μM in series [2] (setting [4]), in series [2] (setting [6]) and in series [2] (setting [8]) were 7.85 h, 1.81 h and 1.37 h, respectively.
